According to patent US20060019241A1, “Na+ and CI-coupled transport system for endogenous opioid peptides” (priority 2004, published 2006):
“Also recorded” adds a separate entry of the source. Ends that are not written are not given here.

What was measured:
Type in all cases: cell-based, human
[1] = test system: deltorphin II transport system in Tat-ARPE-19 cells; assay: Inhibition of [^3H]deltorphin II uptake in Tat-ARPE-19 cells; settings: [^3H]deltorphin II 50 nM; for [^3H] Deltorphin II uptake / [^3H] Deltorphin II uptake (%) of control: Tat-ARPE-19 cells, 30 minutes, NaCl, inhibitor 1 mM; for [^3H] Deltorphin II uptake (%) of control: control = 100; for competition with deltorphin for the uptake process (in words): Tat-ARPE-19 / RPE cells, compound 1 mM
From the text: (§1) Stable transfection of ARPE-19 cells with pcDNA-Tat cDNA. The pGEM2-Tat cDNA construct contained as the insert a 295 basepair (bp) fragment encoding the first exon of HIV-1 Tat gene joined to a 145 bp pET3A transcription terminator. The entire insert (440 bp) was removed from the construct by digestion with PstI and EcoRI and ligated into the multiple cloning region of pcDNA3.1 (−) vector at PstI/EcoRI site so that the insert is downstream of the cytomegalovirus (CMV) promoter. The resultant construct was sequenced to confirm the orientation of the insert. This construct was electroporated into ARPE-19 cells and the stably transfected cell clones were isolated in the presence of Geneticin (G418). To serve as a control, empty pcDNA3.1 vector was electroporated into ARPE-19 cells in an identical manner and the clones harboring the vector were selected by G418 resistance.
(§2) Uptake measurements in control ARPE-19 cells and Tat-ARPE-19 cells. Control ARPE-19 cells and Tat-ARPE-19 cells were maintained in 75-cm^2 culture flasks in Dulbecco's modified Eagle's medium/F12 medium (1:1, volume/volume (v/v)) in the presence of fetal bovine serum (10%) and G418 (100 μg/ml). For uptake measurements, cells were released by trypsin treatment and seeded in 24-well culture plates at an initial density of 0.1×10^6 cells/well. The culture medium was replaced with fresh medium on the second day following the initial seeding and uptake measurements were made on the third day. […] After incubation at 37° C. for a desired time, uptake was terminated by the removal of the medium and washing of the cells with ice-cold uptake buffer. The cells were then dissolved in 1% SDS in 0.2 M NaOH and used for measurement of radioactivity. The uptake buffer in most experiments was 25 mM Hepes/Tris (pH 7.5), containing 140 mM NaCl, 5.4 mM KCl, 1.8 mM CaCl2, 0.8 mM MgSO4 and 5 mM glucose.
When the influence of Na^+ on the uptake process was investigated, the concentration of NaCl in the uptake buffer was adjusted, as desired, by isoosmotically replacing NaCl with N-methyl-D-glucamine chloride. To assess the influence of Cl^− on the uptake process, the composition of the uptake medium was modified by replacing KCl and CaCl2 with equimolar concentrations of potassium gluconate and calcium gluconate and the concentration of NaCl was adjusted, as desired, by iso-osmotically replacing NaCl with sodium gluconate. Saturation kinetics were analysed by fitting the data to the Michaelis-Menten equation. The Michaelis-Menten constant, Kt, was calculated by non-linear regression analysis and then confirmed by linear regression. Na^+- and Cl^−-activation kinetics were analyzed by fitting the data to the Hill equation and the Hill coefficients for Na^+ and Cl^− (h; the number of Na^+ and Cl^− ions involved in the activation process) and the K0.5 values (the concentration of Na^+ and Cl^−-needed for half-maximal activation) were determined from the analysis. Again, these constants were first calculated by non-linear regression methods and subsequently confirmed by linear regression methods. Experiments were repeated three times in duplicate and the results are given as means±S.E.M.
(§3) Substrate specificity of the deltorphin transport system. […] These peptides consisted of 4-13 amino acids.
Relative affinities of endogenous opioid peptides for the transport system.

[2] = test system: deltorphin II transport system in control ARPE-19 cells; assay: Inhibition of [^3H]deltorphin II uptake in control ARPE-19 cells; settings: [^3H]deltorphin II 50 nM, 30 minutes, NaCl, peptide/antagonist 1 mM; for [^3H] Deltorphin II uptake: control ARPE-19 cells (pcDNA vector alone); for [^3H] Deltorphin II uptake (%) of control: control ARPE-19 cells, control = 100
From the text: as §1, §2, §3

[3] = test system: enkephalin/endorphin transport system in SK—N—SH cells; assay: [^3H]deltorphin II uptake in SK—N—SH cells, effect of peptides and amino acids; settings: for Deltorphin II uptake / effect on [^3H]deltorphin II uptake (in words): NaCl, 30 minutes; for Deltorphin II uptake: compound 1 mM; for effect on [^3H]deltorphin II uptake (in words): test substance 1 mM; for Ki: read-out: Ki for inhibition of deltorphin II uptake, dose-response studies
Procedure: as §2
Since enkephalins and endorphins are relevant to pain perception and to further provide evidence in support of a role for the transport system in opioidergic neurotransmission, the human neuronal cell line SK—N—SH was tested for expression of the transport system. […] Unless otherwise specified, procedures are as detailed in Example 1.
The concentration of enkephalins and dynorphins was 1 mM.
Finally, the relative affinity of various enkephalins and dynorphins for the transport system in SK—N—SH cells was determined.
To the further characterize the opioid transport of the present invention, various specific peptides that act as positive modulators of the enkephalin/endorphin transport system in the human neuronal cell line SK—N—SH were identified. Unless otherwise specified, procedures are as detailed in Example 1. […] Uptake was measured in the presence of NaCl for 30 minutes. The concentration of the dipeptides was 1 mM.
Uptake was measured in the presence of NaCl for 30 minutes. The concentration of the tripeptides was 1 mM.
Unless otherwise specified, procedures are as described in more detail in Example 1.
The dose-response relationship for the inhibition of the enkephalin/endorphin transport system by L-Lysine and its methyl and ethyl esters is shown in FIG. 15.

YGGFMRGL [[Arg^6, Gly^7, Leu^8[ Met-enkephalin]
[^3H] Deltorphin II uptake [1]: 0.09 ± 0.01 pmol/mg protein/30 min
[^3H] Deltorphin II uptake (%) of control [1]: 1%
[^3H] Deltorphin II uptake [2]: 0.04 ± 0.001 pmol/mg protein/30 min
[^3H] Deltorphin II uptake (%) of control [2]: 4%

C=CCN1CC[C@]23c4c5ccc(O)c4O[C@H]2C(=O)CC[C@@]3(O)[C@H]1C5 [Naloxone]
[^3H] Deltorphin II uptake [2]: 1.01 ± 0.00 pmol/mg protein/30 min
[^3H] Deltorphin II uptake (%) of control [2]: 94%

NCCCC(=O)O [GABA]
Deltorphin II uptake ([3]; [^3H]deltorphin II 25 nM): 2.62 ± 0.13 pmol/30 min/mg protein

Glu-Gly-Phe
effect on [^3H]deltorphin II uptake (in words) ([3]; [^3H]deltorphin II 25 nM): ability to stimulate the uptake

C[N+](C)(C)C[C@H](O)CC(=O)[O-] [L-Carnitine]
Deltorphin II uptake ([3]; [^3H]deltorphin II 25 nM): 2.34 ± 0.12 pmol/30 min/mg protein

C[C@@H](N)C(=O)O [D-alanine]
effect on [^3H]deltorphin II uptake (in words) ([3]; [^3H]deltorphin II 25 nM): significant inhibition

NCCCCCN [1,5-diaminopentane]
Deltorphin II uptake ([3]; [^3H]deltorphin II 25 nM): 3.24 ± 0.16 pmol/30 min/mg protein

O=C1CC[C@@]2(O)[C@H]3Cc4ccc(O)c5c4[C@@]2(CCN3CC2CC2)[C@H]1O5 [Naltrexone]
[^3H] Deltorphin II uptake [2]: 1.12 ± 0.02 pmol/mg protein/30 min
[^3H] Deltorphin II uptake (%) of control [2]: 104%

YGGFMRF [[Arg^6, Phe^7] Met-enkephalin, Tyr-Gly-Gly-Phe-Met-Arg-Phe]
[^3H] Deltorphin II uptake [1]: 0.11 ± 0.01 pmol/mg protein/30 min
[^3H] Deltorphin II uptake (%) of control [1]: 1%
[^3H] Deltorphin II uptake [2]: 0.05 ± 0.001 pmol/mg protein/30 min
[^3H] Deltorphin II uptake (%) of control [2]: 4%

N[C@H](Cc1ccc(O)cc1)C(=O)O [D-Tyrosine]
[^3H] Deltorphin II uptake [1]: 4.05 ± 0.09 pmol/mg protein/30 min
[^3H] Deltorphin II uptake (%) of control [1]: 52%
effect on [^3H]deltorphin II uptake (in words) ([3]; [^3H]deltorphin II 25 nM): significant inhibition

CC(=O)N[C@@H](CCCCN)C(=O)O [α-N-acetyl-L-Lys]
Deltorphin II uptake ([3]; [^3H]deltorphin II 25 nM): 2.82 ± 0.08 pmol/30 min/mg protein

NCCCCCCN [Hexamethylenediamine]
Deltorphin II uptake ([3]; [^3H]deltorphin II 25 nM): 2.83 ± 0.13 pmol/30 min/mg protein

NCCC[C@H](N)C(=O)O [L-Ornitine]
Deltorphin II uptake ([3]; [^3H]deltorphin II 25 nM): 1.87 ± 0.08 pmol/30 min/mg protein

C[N+](C)(C)CCCC[C@H](N)C(=O)O [Trimethyl-L-Lys]
Deltorphin II uptake ([3]; [^3H]deltorphin II 25 nM): 2.39 ± 0.11 pmol/30 min/mg protein

NC(=O)NCCC[C@H](N)C(=O)O [L-Citrulline]
Deltorphin II uptake ([3]; [^3H]deltorphin II 25 nM): 2.18 ± 0.06 pmol/30 min/mg protein

Gly-Gly-Ile
influence on kinetic parameters of deltorphin II uptake ([3]; 1 mM Gly-Gly-Ile): increasing the maximal velocity of the system without affecting the affinity for its substrate
effect on [^3H]deltorphin II uptake (in words) ([3]; [^3H]deltorphin II 25 nM): ability to stimulate the uptake; also recorded: stimulated
stimulation of deltorphin II uptake ([3]; [^3H]deltorphin II 25 nM, peptide 1 mM): 6- to 8 fold

NCCCCCC(=O)O [6-amino hexanoic acid]
Deltorphin II uptake ([3]; [^3H]deltorphin II 25 nM): 2.92 ± 0.18 pmol/30 min/mg protein

NCC(=O)CCC(=O)O [δ-amino-levulinic acid]
Deltorphin II uptake ([3]; [^3H]deltorphin II 25 nM): 2.68 ± 0.18 pmol/30 min/mg protein

Gly-Gly-Gly
competition with deltorphin for the uptake process (in words) [1]: did not compete; also recorded: significant stimulation
[^3H] Deltorphin II uptake [1]: 9.68 ± 0.39 pmol/mg protein/30 min
[^3H] Deltorphin II uptake (%) of control [1]: 125%
effect on [^3H]deltorphin II uptake (in words) ([3]; [^3H]deltorphin II 25 nM): ability to stimulate the uptake

CC(C)[C@H](N)C(=O)O [L-valine]
effect on [^3H]deltorphin II uptake (in words) ([3]; [^3H]deltorphin II 25 nM): significant inhibition

COC(=O)[C@H](CCCCN)NC(C)=O [α-N-acetyl-L-Lys-methyl ester]
Deltorphin II uptake ([3]; [^3H]deltorphin II 25 nM): 2.37 ± 0.20 pmol/30 min/mg protein

Tyr-Gly-Gly-Phe-Leu [Leu-enkephalin]
competition with deltorphin for the uptake process (in words) [1]: marked inhibition
[^3H] Deltorphin II uptake [1]: 0.15 ± 0.01 pmol/mg protein/30 min
[^3H] Deltorphin II uptake (%) of control [1]: 2%
IC50 ([3]; read-out: affinity for the transport system (concentration-dependent inhibition of [^3H]deltorphin II uptake), [^3H]deltorphin II 25 nM): 7.8 ± 1.2 µM

CC(C)C[C@H](N)C(=O)O [L-leucine]
effect on [^3H]deltorphin II uptake (in words) ([3]; [^3H]deltorphin II 25 nM): significant inhibition

NCCCC[C@H](N)C(N)=O [L-Lys-amide]
Deltorphin II uptake ([3]; [^3H]deltorphin II 25 nM): 2.92 ± 0.09 pmol/30 min/mg protein

NCCCC[C@@H](N)C(=O)O [D-Lys, D-lysine]
Deltorphin II uptake ([3]; [^3H]deltorphin II 25 nM): 2.60 ± 0.31 pmol/30 min/mg protein
effect on [^3H]deltorphin II uptake (in words) ([3]; [^3H]deltorphin II 25 nM): no effect

CC(=O)NCCCC[C@H](N)C(=O)O [ε-N-acetyl-L-Lys]
Deltorphin II uptake ([3]; [^3H]deltorphin II 25 nM): 2.38 ± 0.13 pmol/30 min/mg protein

Gly-Gly-Phe
effect on [^3H]deltorphin II uptake (in words) ([3]; [^3H]deltorphin II 25 nM): ability to stimulate the uptake

Try-Gly-Gly
effect on [^3H]deltorphin II uptake (in words) ([3]; [^3H]deltorphin II 25 nM): ability to stimulate the uptake

CCOC(=O)[C@@H](N)CCCCN [Lys-ethyl ester, L-lysylethyl ester]
Deltorphin II uptake ([3]; [^3H]deltorphin II 25 nM): 0.55 ± 0.05 pmol/30 min/mg protein
Ki [3]: 154 ± 34 µM

N=C(N)NCCC[C@H](N)C(=O)O [L-Arg, L-arginine]
Deltorphin II uptake ([3]; [^3H]deltorphin II 25 nM): 1.46 ± 0.12 pmol/30 min/mg protein
effect on [^3H]deltorphin II uptake (in words) ([3]; [^3H]deltorphin II 25 nM): significant inhibition

CC(=N)NCCCC[C@H](N)C(=O)O [L-NIL]
Deltorphin II uptake ([3]; [^3H]deltorphin II 25 nM): 2.40 ± 0.15 pmol/30 min/mg protein

Tyr-Gly-Gly-Phe-Met-NH2 (YGGFM; printed: Tyr-Gly-Gly-Phe-Met-) [Met-enkephalinamide]
competition with deltorphin for the uptake process (in words) [1]: marked inhibition
[^3H] Deltorphin II uptake [1]: 0.69 ± 0.01 pmol/mg protein/30 min
[^3H] Deltorphin II uptake (%) of control [1]: 9%

COC(=O)[C@@H](N)CCCCN [L-Lys-methyl ester, L-lysylmethyl ester]
Deltorphin II uptake ([3]; [^3H]deltorphin II 25 nM): 0.28 ± 0.01 pmol/30 min/mg protein
Ki [3]: 169 ± 9 µM

YGGFMK [α-Neo-endorphin (1-6)]
competition with deltorphin for the uptake process (in words) [1]: marked inhibition
[^3H] Deltorphin II uptake [1]: 0.19 ± 0.01 pmol/mg protein/30 min
[^3H] Deltorphin II uptake (%) of control [1]: 3%
